Data published in patent publication US10995101B2, “2-oxo-thiazole derivatives as A2A inhibitors and compounds for use in the treatment of cancers” (iTeos Therapeutics SA, priority 2017, dated 2021).

Target: A2A receptor (Homo sapiens, UniProt P29274)
Assay: Inhibition of cAMP production in HEK cells
Assay type: cell-based
Details: HEK-293 cells with A2A receptor
Experimental: When the A2A receptor is activated, is induces the production of cAMP.
HEK-293 cells with a stable transfection of A2A receptor were bought from PerkinElmer® (# ES-011-C). […] Fresh media without the selection marker was added on the day immediately before the experiment to stop selection pressure.
Stimulation buffer b) mimics the human situation by increasing the amount of albumin present in the assay.
Compounds of the present invention were diluted 100× in either of the buffers depending on the assay performed. […] The total volume of the reaction was 20 μl (10 μl of cells, 5 μl of antagonist and 5 μl of agonist). The reaction was finalized by adding 10 μl of 4× EU-cAMP tracer working solution and 10 μl of 4× ULight-anti-cAMP working solution. The TR-FRET signal was measured after 1 hour using a Spectramax Paradigm (Molecular Devices).

[1] = IC50 (nM) (3 nM NECA as agonist, 0.1% BSA), 3 nM NECA as agonist, 0.1% BSA
[2] = IC50 (nM) (5 nM NECA as agonist, 2% HSA), 5 nM NECA as agonist, 2% HSA
[3] = IC50 (nM) (5 μM Adenosine as agonist, 2.0% HSA), 5 μM Adenosine as agonist, 2.0% HSA

A2A receptor, sequence (P29274 whole entry): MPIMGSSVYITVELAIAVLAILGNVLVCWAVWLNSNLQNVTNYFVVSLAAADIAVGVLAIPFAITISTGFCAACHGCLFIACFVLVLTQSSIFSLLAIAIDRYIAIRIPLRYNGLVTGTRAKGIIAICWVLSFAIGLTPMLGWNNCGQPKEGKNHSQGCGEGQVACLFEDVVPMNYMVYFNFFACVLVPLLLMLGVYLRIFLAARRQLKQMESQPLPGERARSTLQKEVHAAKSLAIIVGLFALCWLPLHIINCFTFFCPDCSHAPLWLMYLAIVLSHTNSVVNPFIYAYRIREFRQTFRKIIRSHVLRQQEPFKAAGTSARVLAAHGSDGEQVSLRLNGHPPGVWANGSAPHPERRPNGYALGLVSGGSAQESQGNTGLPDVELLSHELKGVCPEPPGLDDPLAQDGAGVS

Row | IC50 [1] | IC50 [2] | IC50 [3] | Compound
1 | 0.4 nM | 11 nM | 350 nM | CS(=O)(=O)c1ccc(N2CCN(CCn3c(=O)sc4c3nc(N)n3nc(-c5ccco5)nc43)CC2)c(F)c1 [Compound 29, 5-amino-3-(2-(4-(2-fluoro-4-(methylsulfonyl)phenyl)piperazin-1-yl)ethyl)-8-(furan-2-yl)thiazolo[5,4-e][1,2,4]triazolo[1,5-c]pyrimidin-2(3H)-one]
2 | 0.8 nM | 9 nM | 398 nM | CC(Oc1ccc(N2CCN(CCn3c(=O)sc4c3nc(N)n3nc(-c5ccco5)nc43)CC2)c(F)c1)C(=O)O (centres unmarked) [Compound 37, 2-(4-(4-(2-(5-amino-8-(furan-2-yl)-2-oxothiazolo[5,4-e][1,2,4]triazolo[1,5-c]pyrimidin-3(2H)-yl)ethyl)piperazin-1-yl)-3-fluorophenoxy)propanoic acid]
3 |  | 4 nM | 127 nM | C[C@@H](Oc1ccc(N2CCN(CCn3c(=O)sc4c3nc(N)n3nc(-c5ccco5)nc43)CC2)c(F)c1)C(=O)O (single isomer, unassigned) [Compound 53]
4 | 14.2 nM |  |  | Nc1nc2c(sc(=O)n2CCN2CCN(c3ccc(OCC(O)CO)cc3)CC2)c2nc(-c3ccco3)nn12 (centres unmarked) [Compound 12, 5-amino-3-(2-(4-(4-(2,3-dihydroxypropoxy)phenyl)piperazin-1-yl)ethyl)-8-(furan-2-yl)thiazolo[5,4-e][1,2,4]triazolo[1,5-c]pyrimidin-2(3H)-one]
5 | 1.9 nM | 352 nM |  | CS(=O)(=O)c1ccc(N2CCN(CCn3c(=O)sc4c3nc(N)n3nc(-c5ccco5)nc43)CC2)cc1 [Compound 20, 5-amino-8-(furan-2-yl)-3-(2-(4-(4-(methylsulfonyl)phenyl)piperazin-1-yl)ethyl)thiazolo[5,4-e][1,2,4]triazolo[1,5-c]pyrimidin-2(3H)-one]
6 | 0.3 nM | 1 nM | 41 nM | CNCCN(C)C(=O)COc1ccc(N2CCN(CCn3c(=O)sc4c3nc(N)n3nc(-c5ccco5)nc43)CC2)c(F)c1 [Compound 58, 2-(4-(4-(2-(5-amino-8-(furan-2-yl)-2-oxothiazolo[5,4-e][1,2,4]triazolo[1,5-c]pyrimidin-3(2H)-yl)ethyl)piperazin-1-yl)-3-fluorophenoxy)-N-methyl-N-(2-(methylamino)ethyl)acetamide]
7 | 0.8 nM | 4 nM | 240 nM | C[C@H](Oc1cc(N2CCN(CCn3c(=O)sc4c3nc(N)n3nc(-c5ccco5)nc43)CC2)c(F)cc1F)C(=O)O (single isomer, unassigned) [Compound 60]
8 | 0.6 nM |  |  | Nc1nc2c(sc(=O)n2CCN2CCN(c3cccc(OCCO)c3)CC2)c2nc(-c3ccco3)nn12 [Compound 23, 5-amino-8-(furan-2-yl)-3-(2-(4-(3-(2-hydroxyethoxy)phenyl)piperazin-1-yl)ethyl)thiazolo[5,4-e][1,2,4]triazolo[1,5-c]pyrimidin-2(3H)-one]
9 | 0.2 nM | 4 nM | 115 nM | Nc1nc2c(sc(=O)n2CCN2CCN(c3ccc(S(=O)(=O)N4CCNCC4)cc3F)CC2)c2nc(-c3ccco3)nn12 [Compound 28, 5-amino-3-(2-(4-(2-fluoro-4-(piperazin-1-ylsulfonyl)phenyl)piperazin-1-yl)ethyl)-8-(furan-2-yl)thiazolo[5,4-e][1,2,4]triazolo[1,5-c]pyrimidin-2(3H)-one]
10 | 2.6 nM |  |  | CNS(=O)(=O)c1ccc(N2CCN(CCn3c(=O)sc4c3nc(N)n3nc(-c5ccco5)nc43)CC2)cc1 [Compound 19, 4-(4-(2-(5-amino-8-(furan-2-yl)-2-oxothiazolo[5,4-e][1,2,4]triazolo[1,5-c]pyrimidin-3(2H)-yl)ethyl)piperazin-1-yl)-N-methylbenzenesulfonamide]
11 | 3.4 nM | 8 nM | 304 nM | CCOC(=O)COc1cc(N2CCN(CCn3c(=O)sc4c3nc(N)n3nc(-c5ccco5)nc43)CC2)c(F)cc1F [Compound 73, ethyl 2-(5-(4-(2-(5-amino-8-(furan-2-yl)-2-oxothiazolo[5,4-e][1,2,4]triazolo[1,5-c]pyrimidin-3(2H)-yl)ethyl)piperazin-1-yl)-2,4-difluorophenoxy)acetate]
12 | 117 nM |  |  | CN(C)CCNC(=O)c1cc(N2CCN(CCn3c(=O)sc4c3nc(N)n3nc(-c5ccco5)nc43)CC2)c(F)cc1F [Compound 81, 5-(4-(2-(5-amino-8-(furan-2-yl)-2-oxothiazolo[5,4-e][1,2,4]triazolo[1,5-c]pyrimidin-3(2H)-yl)ethyl)piperazin-1-yl)-N-(2-(dimethylamino)ethyl)-2,4-difluorobenzamide]
13 | 0.6 nM | 2 nM | 63 nM | NCCOc1ccc(N2CCN(CCn3c(=O)sc4c3nc(N)n3nc(-c5ccco5)nc43)CC2)cc1 [Compound 13, 5-amino-3-(2-(4-(4-(2-aminoethoxy)phenyl)piperazin-1-yl)ethyl)-8-(furan-2-yl)thiazolo[5,4-e][1,2,4]triazolo[1,5-c]pyrimidin-2(3H)-one]
14 | 0.8 nM | 14 nM | 423 nM | Nc1nc2c(sc(=O)n2CCN2CCN(c3ccc(OCCCC(=O)O)cc3F)CC2)c2nc(-c3ccco3)nn12 [Compound 41, 4-(4-(4-(2-(5-amino-8-(furan-2-yl)-2-oxothiazolo[5,4-e][1,2,4]triazolo[1,5-c]pyrimidin-3(2H)-yl)ethyl)piperazin-1-yl)-3-fluorophenoxy)butanoic acid]
15 | 0.3 nM |  | 205 nM | Nc1nc2c(sc(=O)n2CCN2CCN(c3ccc(C(=O)NCCN4CCOCC4)cc3F)CC2)c2nc(-c3ccco3)nn12 [Compound 106, 4-(4-(2-(5-amino-8-(furan-2-yl)-2-oxothiazolo[5,4-e][1,2,4]triazolo[1,5-c]pyrimidin-3(2H)-yl)ethyl)piperazin-1-yl)-3-fluoro-N-(2-morpholinoethyl)benzamide]
16 | 0.7 nM | 8 nM | 260 nM | Nc1nc2c(sc(=O)n2CCN2CCN(c3c(F)cc(OCC(=O)O)cc3F)CC2)c2nc(-c3ccco3)nn12 [Compound 36, 2-(4-(4-(2-(5-amino-8-(furan-2-yl)-2-oxothiazolo[5,4-e][1,2,4]triazolo[1,5-c]pyrimidin-3(2H)-yl)ethyl)piperazin-1-yl)-3,5-difluorophenoxy)acetic acid]
17 | 24 nM | 100 nM |  | Nc1nc2c(sc(=O)n2CCN2CCN(c3ccncc3)CC2)c2nc(-c3ccco3)nn12 [Compound 75, 5-amino-8-(furan-2-yl)-3-(2-(4-(pyridin-4-yl)piperazin-1-yl)ethyl)thiazolo[5,4-e][1,2,4]triazolo[1,5-c]pyrimidin-2(3H)-one]
18 | 5 nM | 151 nM |  | Nc1nc2c(sc(=O)n2CCN2CCN(c3ccncn3)CC2)c2nc(-c3ccco3)nn12 [Compound 76, 5-amino-8-(furan-2-yl)-3-(2-(4-(pyrimidin-4-yl)piperazin-1-yl)ethyl)thiazolo[5,4-e][1,2,4]triazolo[1,5-c]pyrimidin-2(3H)-one]
19 | 0.7 nM | 11 nM | 567 nM | NC(=O)c1ccc(N2CCN(CCn3c(=O)sc4c3nc(N)n3nc(-c5ccco5)nc43)CC2)cc1 [Compound 14, 4-(4-(2-(5-amino-8-(furan-2-yl)-2-oxothiazolo[5,4-e][1,2,4]triazolo[1,5-c]pyrimidin-3(2H)-yl)ethyl)piperazin-1-yl)benzamide]
20 | 0.9 nM | 21 nM | 1070 nM | CC(C)(Oc1cc(N2CCN(CCn3c(=O)sc4c3nc(N)n3nc(-c5ccco5)nc43)CC2)c(F)cc1F)C(=O)O [Compound 59, 2-(5-(4-(2-(5-amino-8-(furan-2-yl)-2-oxothiazolo[5,4-e][1,2,4]triazolo[1,5-c]pyrimidin-3(2H)-yl)ethyl)piperazin-1-yl)-2,4-difluorophenoxy)-2-methylpropanoic acid]
21 | 1.4 nM | 6 nM | 352 nM | NC(=O)c1cccc(N2CCN(CCn3c(=O)sc4c3nc(N)n3nc(-c5ccco5)nc43)CC2)c1 [Compound 22, 3-(4-(2-(5-amino-8-(furan-2-yl)-2-oxothiazolo[5,4-e][1,2,4]triazolo[1,5-c]pyrimidin-3(2H)-yl)ethyl)piperazin-1-yl)benzamide]
22 | 0.6 nM | 27 nM | 494 nM | Nc1nc2c(sc(=O)n2CCN2CCN(c3cc(OCCCC(=O)O)c(F)cc3F)CC2)c2nc(-c3ccco3)nn12 [Compound 65, 4-(5-(4-(2-(5-amino-8-(furan-2-yl)-2-oxothiazolo[5,4-e][1,2,4]triazolo[1,5-c]pyrimidin-3(2H)-yl)ethyl)piperazin-1-yl)-2,4-difluorophenoxy)butanoic acid]
23 | 2 nM |  |  | NC(=O)COc1ccc(N2CCN(CCn3c(=O)sc4c3nc(N)n3nc(-c5ccco5)nc43)CC2)cc1 [Compound 11, 2-(4-(4-(2-(5-amino-8-(furan-2-yl)-2-oxothiazolo[5,4-e][1,2,4]triazolo[1,5-c]pyrimidin-3(2H)-yl)ethyl)piperazin-1-yl)phenoxy)acetamide]
24 | 1.1 nM |  | 30 nM | Nc1nc2c(sc(=O)n2CCN2CCN(c3cc(OCC(=O)NCCN4CCOCC4)c(F)cc3F)CC2)c2nc(-c3ccco3)nn12 [Compound 97, 2-(5-(4-(2-(5-amino-8-(furan-2-yl)-2-oxothiazolo[5,4-e][1,2,4]triazolo[1,5-c]pyrimidin-3(2H)-yl)ethyl)piperazin-1-yl)-2,4-difluorophenoxy)-N-(2-morpholinoethyl)acetamide]
